Experimental data reported in patent US4439365A, “Novel hydroxy substituted prostanoic acids, esters, congeners, intermediates and process” (American Cyanamid Company, priority 1979, dated 1984).

Tests used:
[1] = test system: ulcerogenic properties of indomethacin; assay: Protection against indomethacin-induced ulcers in rats; assay type: in vivo; conditions: indomethacin 20 mg./kg. s.c.
Procedure: The compounds of this invention provide protection against the ulcerogenic properties of indomethacin. This assay was carried out in the following manner.
Rats were starved for 48 hours (water was given ad libitum). Indomethacin (20 mg./kg. of body weight) was administered by the subutaneous route and one-half the dose of the test compound was administered by gavage at the same time. After three hours, the second half of the test compound was administered also by Gavage. Five hours after the administration of indomethacin the animals were decapitated and the stomachs removed. The stomachs were washed with distilled water, blotted on gauze, cut along the larger curvature, and the contents rinsed with distilled water. The stomachs were spread out, pinned on a cork and visualized under magnifying glass for ulcers. The criteria for scoring of ulcers was as previously reported. [Abdel-Galil et al. Brit. J. Pharmac. Chemotherapy 33:1-14 (1968)]. […]
Control animals treated with indomethacin but not test compound consistently give scores of about 3.0-3.5. Control animals treated with neither indomethacin nor test compound give scores of about 0.5-0.8. Compounds producing a score of 2.5 or lower are considered to be active.

gastric acid secretion = assay: Gastric acid secretion inhibition, modified Shay rat procedure; assay type: in vivo, rats (male, CFE strain); conditions: pylorus-ligated rats, intraduodenal dose 100 mg./kg., 3 hours, 20% or more active, read-out: Percent Inhibition of gastric acid secretion
Procedure: The novel compounds of the present invention are also effective inhibitors of gastric acid secretion and of ulcer development in experimental animals, and thus are potentially valuable as agents for the control of gastric acid secretion and of gastric erosion and as anti-ulcer agents. Gastric acid secretion inhibitory action is usually measured by the "Shay rat" procedure^(1,2) with some modifications as follows.
The rats (male, CFE strain), were starved for 48 hours (water was given ad libitum) to permit evacuation of stomach contents. On the morning of the experiment, under ether anesthesia, the abdominal region was shaved and a midline incision (1-11/2") was made with a scapel. […]
The abdominal cavity was exposed by cutting with scissors and the esophagus close to the stomach was clamped off with a hemostat, the stomach was removed by cutting above the hemostat (the esophagus was cut) and between the two sutures. […] The supernatant was collected, volume measured and recorded, 2 drops of a phenolphthalein indicator (1% in 95% ethanol) were added and the solution was titrated with 0.02 N NaOH (or with 0.04 N NaOH when large volumes of stomach contents were encountered) to pH 8.4 (because of usual coloring of the stomach contents, phenolphthalein was only used to permit visual indication that the end point was near) and the amount of acid present was calculated. […]

[2] = total oral dose 25 mg./kg. in two halves by gavage, scale 0 normal stomach to 4 many ulcers, mainly large, 2.5 or lower active, control 3.2

Question: `CCCCC[C@H](O)/C=C/[C@H]1CCC(=O)[C@@H]1CCCCSCC(=O)O` (relative stereo) [9-oxo-3-thia-15-hydroxy-13-trans-prostenoic acid] was tested. Which “Score Treated (ulcer score)” value [1, 2] did it give?
Answer: 1.8

Question: With `CCCCC[C@@H](O)/C=C/[C@H]1CCC(=O)[C@@H]1CCCCSCC(=O)O` (relative stereo) [9-oxo-3-thin-15-epi-hydroxy-13-trans-prostenoic acid] as the compound, how does the “Score Treated (ulcer score)” value [1, 2] read?
Answer: 2.3

Question: For `CCCCCC(O)/C=C/[C@H]1CCC(=O)[C@]1(C)CCCCCCC(=O)O` (relative stereo) [9-oxo-8β-methyl-15-hydroxy-13-trans-prostenoic acid], which “Score Treated (ulcer score)” value ([1]; total oral dose 12.5 mg./kg. in two halves by gavage, scale 0-4, 2.5 or lower active, control 3.0) is on record?
Answer: 2.0

Question: For `CCCCCC(O)/C=C/C1CCC(=O)C1CCCCCC(CC)C(=O)O` (stereo not drawn) [9-oxo-15-hydroxy-2-ethyl-13-trans-prostenoic acid], which “Score Treated (ulcer score)” value ([1]; total oral dose 50 mg./kg. in two halves by gavage, scale 0-4, 2.5 or lower active, control 3.0) is on record?
Answer: 2.2

Question: `CCCCCC(O)/C=C/C1CCC(=O)C1CCCCC(C)(C)CC(=O)O` (stereo not drawn) [9-oxo-15-hydroxy-3,3-dimethyl-13-trans-prostenoic acid] was tested. Which inhibition at 100 mg/kg (gastric acid secretion) did it give?
Answer: 51%

Question: With `CCCCCC(O)/C=C\C1CCC(=O)C1CCCCCCC(=O)O` (stereo not drawn) [9-oxo-15-hydroxy-13-cis-prostenoic acid] as the compound, how does the “Score Treated (ulcer score)” value ([1]; total oral dose 100 mg./kg. in two halves by gavage, scale 0-4, 2.5 or lower active, control 3.0) read?
Answer: 1.3

Question: Which “Score Treated (ulcer score)” value [1, 2] does the source give for `CCCCC(CC)C(O)/C=C/C1CCC(=O)C1CCCCCCC(=O)O` (stereo not drawn) [9-oxo-15-hydroxy-16-ethyl-13-trans-prostenoic acid] here?
Answer: 1.7
